Assay results reported in patent EP4635490A1, “PM20D1-DERIVED N-OLEOYL-L-LEUCINE FOR THE TREATMENT AND PREVENTION OF NEURODEGENERATIVE DISEASES” (Consejo Superior De Investigaciones Científicas, priority 2024, dated 2025).

Columns and labels:
[1] = test system: APP/PS1-derived hippocampal neuronal cultures; assay: ELISA of Aβ production in primary hippocampal neuronal cultures; type: cell-based, mice; conditions: 200nM C18:1-Leu, 24h vs vehicle; n=5, p=0.0093
Procedure: (§1) • Fig. 1. C18:1-Leu treatment in neuronal cultures. a, Enzyme-linked immunosorbent assays (ELISA) of APP/PS1-derived hippocampal neuronal cultures treated during 24h with 200nM C18:1-Leu. n=5 per group, p=0.0093; one-sided Student's t-test. b, Lactate dehydrogenase (LDH) release viability assay of APP/PS1-derived hippocampal neuronal cultures treated during 16h with 150µM H2O2 and 200nM C18:1-Leu. ROS, reactive oxygen species. n=10 per group, p=0.0048; one-sided Student's t-test. b, AlamarBlue cell viability assay of SH-SY5Y cells treated during 24h with 10µM thapsigargin and 200nM C18:1 -Leu. UPS, unfolded-protein stress. n=5 per group, p=0.0084; one-sided Student's t-test. Single values (experiments) are represented by dots. *p<0.05, and **p<0.01. • Fig. 2. […] AD pathologies and phenotypes in APP/PS1 mice. a, Methoxy-X04 (MX04) IHC amyloid burden (area) quantification. n=8 per group, p=0.0283; one-sided Student's t-test. b, Novel object recognition (NOR) performance of vehicle and C18:1-Leu treated APP/PS1 mice. […]

[2] = test system: APP/PS1-derived hippocampal neuronal cultures; assay: LDH release viability assay under H2O2 (ROS) stress; type: cell-based, mice; conditions: 200nM C18:1-Leu, 16h with 150µM H2O2 (Fig. 1b legend); n=10, p=0.0048
Procedure: as §1

SH-SY5Y cells = assay: AlamarBlue cell viability assay under thapsigargin (unfolded-protein stress); type: cell-based, human; conditions: 200nM C18:1-Leu, 24h with 10µM thapsigargin; n=5, p=0.0084
Procedure: as §1

GMC101 worms [3] = assay: Mobility phenotyping of GMC101 worms (AD model); type: in vivo, C. elegans; conditions: 200 µM C18:1-Leu, first 3 days of adulthood, vs vehicle
Procedure: as §1

GMC101 worms [4] = assay: Amyloid aggregation in GMC101 worms (western blot); type: in vivo, C. elegans; conditions: 200 µM C18:1-Leu, GMC101 worms at day 1, vs vehicle; p=0.0108
Procedure: as §1

APP/PS1 mice [5] = assay: Immunohistochemistry of brain sections of treated APP/PS1 mice (amyloid plaques, microglia, neuronal damage); type: in vivo
Procedure: • Fig. 1. C18:1-Leu treatment in neuronal cultures. a, Enzyme-linked immunosorbent assays (ELISA) of APP/PS1-derived hippocampal neuronal cultures treated during 24h with 200nM C18:1-Leu. n=5 per group, p=0.0093; one-sided Student's t-test. b, Lactate dehydrogenase (LDH) release viability assay of APP/PS1-derived hippocampal neuronal cultures treated during 16h with 150µM H2O2 and 200nM C18:1-Leu. ROS, reactive oxygen species. n=10 per group, p=0.0048; one-sided Student's t-test. b, AlamarBlue cell viability assay of SH-SY5Y cells treated during 24h with 10µM thapsigargin and 200nM C18:1 -Leu. UPS, unfolded-protein stress. n=5 per group, p=0.0084; one-sided Student's t-test. Single values (experiments) are represented by dots. *p<0.05, and **p<0.01. • Fig. 2. AD pathologies and phenotypes in GMC101 worms. a, Mobility assessment in vehicle and C18:1-Leu treated GMC101 worms during the 3 first days of adulthood. a.u., arbitrary units. n=75-100 worms per time, p=0.0001 and p=0.0152 for day 2 and 3, respectively; one-sided Student's t-test. b, Pumping per minute in vehicle and C18:1-Leu treated GMC101 worms at day 3. n=7 per group, p=0.0162; one-sided t-test. c, Relative amyloid aggregation in vehicle and C18:1-Leu treated GMC101 worms at day 1. n=6 experiments of -1000 worms each, pval=0.0108; one-sided Student's t-test. Single values (animals) are represented by dots. *p<0.05, and ***p<0.001. • Fig. 3. AD pathologies and phenotypes in APP/PS1 mice. a, Methoxy-X04 (MX04) IHC amyloid burden (area) quantification. n=8 per group, p=0.0283; one-sided Student's t-test. b, Novel object recognition (NOR) performance of vehicle and C18:1-Leu treated APP/PS1 mice. C18:1-Leu was provided from 15 to 18 months (m) of age. n=11-15 per group, p=0.0312. Single values (animals) are represented by dots. *p<0.05, **p<0.01, and ***p<0.001. • Fig. 4. Microglia analysis in C18:1-Leu treated APP/PS1 mice. a, Quantification of Ionized calcium-binding adaptor molecule 1 (IBA1, microglia) area within methoxy-X04 (MX04, amyloid plaques) region of interest (ROI). n=6-7 per group, p=0.0051; one-sided Student's t-test. b, Amyloid plaque number quantification. n=8 per group, p=0.0444; one-sided Student's t-test. c, Percentage of amyloid halo (diffuse, toxic) area over plaque dense core. n=8 per group, p=0.0389; one-sided Student's t-test. d, Percentage of the Lysosome-associated protein 1 (LAMP1, neuronal damage) area over to plaque dense core. n=8-9 per group, p=0.0132; one-sided Student's t-test. Single values (animals) are represented by dots. *p<0.05, and **p<0.01. • Fig. 5. C18:1-Leu treatment in microglia cultures. a, Transwell assay of APP/PS1-derived primary microglia treated during 24h with 200nM C18:1-Leu. n=6 per group, p=0.0007; one-sided Student's t-test. b, Amyloid-beta 40 (Aβ40) ELISA assays of APP/PS1-derived primary microglia cultures after 24h of 200nM C18:1-Leu treatment in presence of amyloid-beta (Aβ). n=5 per group, p=0.0201; one-sided Student's t-test. Single values (experiments) are represented by dots. *p<0.05, **p<0.01, and ***p<0.001. • Fig. 6. RNA expression signatures in human samples I. C18:1-Leu score according to PM20D1 haplotype in Alzheimer's disease (AD) and control postmortem brain samples. a, n=387 control and n=511 AD samples, Wilcoxon test, ****p<0.0001 • Fig. 7. RNA expression signatures in human samples II. Correlation between PIG and C18:1-Leu scores in AD samples. n=511 AD samples, Spearman correlation. • Fig. 8. […]

APP/PS1 mice [6] = assay: Novel object recognition test in APP/PS1 mice; type: in vivo; conditions: 25 mg/kg/day p.o. during three months, starting at 15 months-of-age; n=11-15, p=0.0312
Procedure: as §1

[7] = test system: APP/PS1-derived primary microglia; assay: Transwell migration assay (Aβ chemotaxis) of primary microglia; type: cell-based, mice; conditions: 200nM C18:1-Leu, 24h, conditioned Aβ media in lower chamber; n=6, p=0.0007
Procedure: as §1

[8] = test system: APP/PS1-derived primary microglia; assay: Aβ clearance by primary microglia, Amyloid beta 40 ELISA; type: cell-based, mice; conditions: 200nM C18:1-Leu, 24h in presence of Aβ; n=5, p=0.0201
Procedure: as §1

`CCCCCCCC/C=C\CCCCCCCC(=O)N[C@@H](CC(C)C)C(=O)O` [C18:1-Leu, N-oleoyl-L-Leucine] was tested. Which Aβ production [1] did it give?
The Aβ production was “reduces Aβ production in neuronal cells”.

What about the “neuroprotection against ROS (cell viability, LDH release)” value [2] of the same compound?
The value was “increases neuroprotection against ROS”.

And the “neuroprotection against UPS stress (cell viability, AlamarBlue)” value (SH-SY5Y cells)?
Its value is “increases neuroprotection”.

And the “AD-like phenotypes - spontaneous and induced mobility” value (GMC101 worms [3])?
The value was “significantly improves”.

What about the “amyloid pathologies (relative amyloid aggregation)” value (GMC101 worms [4]) of the same compound?
The value was “significantly improves”.

And the “amyloid burden (Methoxy-X04 IHC area)” value (APP/PS1 mice [5]; 25 mg/kg/day p.o. during three months, starting at 15 months-of-age, n=8, p=0.0283)?
Its value is “improves amyloid burden”.

What about the “microglia association with amyloid plaques (relative MX04 area occupied by IBA1)” value (APP/PS1 mice [5]; C18:1-Leu treated APP/PS1 mice vs vehicle, n=6-7, p=0.0051) of the same compound?
The value was “increased microglia association”.

And the “relative size of the diffuse halo of the plaques” value (APP/PS1 mice [5]; C18:1-Leu treated APP/PS1 mice vs vehicle, n=8, p=0.0389)?
The value was “reduced”.

What about the “number of amyloid plaques” value (APP/PS1 mice [5]; C18:1-Leu treated APP/PS1 mice vs vehicle, n=8, p=0.0444) of the same compound?
The value was “reduced”.

And the “LAMP1 area (neuronal damage) over plaque dense core” value (APP/PS1 mice [5]; C18:1-Leu treated APP/PS1 mice vs vehicle, n=8-9, p=0.0132)?
Its value is “stronger LAMP1 area reduction”.

And the “cognitive deficits (novel object recognition test)” value (APP/PS1 mice [6])?
The value was “improves”.

What about the “Aβ chemotaxis (migrated microglia)” value [7] of the same compound?
Its value is “increased Aβ chemotaxis”.

What about the “Aβ clearance (remaining Aβ40 in media)” value [8] of the same compound?
The value was “increases Aβ clearance”.
